We go through 13 compounds from patent US20240400584A1, “COMPOUNDS AND METHODS FOR MODULATING SPLICING” (REMIX THERAPEUTICS INC., priority 2021, published 2024).

One experiment deals with SMN2. Description: Gene panel canonical junction qPCR assay, SMN2 CJ mRNA (Table 7). In kind it is cell-based. As to conditions: Homo sapiens, read-out: SMN2 CJ mRNA decrease IC50. In short, it runs like this:
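Canonical-junction transcript decrease reported as IC50 from a 4-parameter logistic fit of percentage response, derived from 2^(−ΔΔCt) versus housekeeper (GAPDH/GUSB/PPIA) and DMSO control using preset ΔCt windows. Readout by cDNA synthesis and qPCR with exon-junction-overlapping probesets in compound-treated K562 or A673 cells.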
Background: Real-time PCR tracks product formation cycle by cycle.

Experiment [1] concerns HiBit-tagged HTT in K562 cells. Description: HiBiT protein abundance assay, HTT. In kind it is cell-based, human. The settings on record: HiBiT-modified K562 cells, 24 hours, luminescence. As to the method: (§1) Compounds described herein were used to screen for effects on quantitative protein abundance using a HiBit assay system (Promega). Quantitative protein abundance was determined by measuring the protein levels of HiBit-tagged protein targets expressed in cell culture via luminescence using the Nano-Glo HiBiT Lytic Detection System, which uses a split complementation assay format to reconstitute NanoBiT enzyme to generate a luminescent signal. A protein abundance assay was developed such that endogenous protein targets could be modified with the HiBiT peptide tag and their abundance could be assessed after compound treatment. Briefly, K562 cell lines containing a HiBiT-modification were treated with various compounds described herein (e.g., compounds of Formulas (I)). After treatment for 24 hours, the protein abundance of a specific target was determined by measuring luminescence.
(§2) Cells were maintained in IMDM with 10% FBS. Before the assay, cells were diluted with […] growth media (IMDM+[…] media) and were seeded in a 384-well plate at a density of 10000 cells/well (for each cell line listed in Table 8). Each compound was prepared as a 10-point 3-fold serial dilution in DMSO with the top dose at a final concentration of 10 μM in the well. Unmodified K562 cells were added at the previously specified density with DMSO to serve as an assay baseline and positive control (PC) and DMSO only with the respective modified cell lines was added to the negative control (NC) columns. Final DMSO concentration was kept at or below 0.25% o. Treated cell plates were placed in an incubator at 37° C. with […] for 24 hours. After 24 hours, 25 μL of Complete HiBit Lytic reagent was added to each well at room temperature (e.g. one plate requiring 10 mL Lytic Buffer, 100 μL LgBiT Protein, 200 μL Lytic Substrate), shaken for 5 minutes at 600 RPM, then left to sit for 10 minutes for signal to stabilize before reading on a Spark Cyto plate reader (Tecan) with a 500 ms measurement time.
(§3) To determine compound effects on protein abundance of each target in Table 9, the percent response for each respective cell line was calculated at each compound concentration as follows:
(§4) For the normalized response at each concentration, a four-parameter logistical regression was fit to the data and the response was interpolated at the […] to determine a concentration for protein abundance at 50% o (IC50) the untreated control.

For experiment [2], the system named is HiBit-tagged Target C in K562 cells. The experiment can be described thus: HiBiT protein abundance assay, Target C. In kind it is cell-based, human. As to conditions: HiBiT-modified K562 cells, 24 hours, luminescence. As to the method:
as §1, §2, §3, §4
A general note: The HiBiT peptide binds its large partner to form an active luciferase.

Consider `CC1(C)CC(Nc2ccc3c(n2)OCc2cc(-n4cccn4)ccc2-3)CC(C)(C)N1` [Compound 165], for which the figures for the IC50 (in the experiment with SMN2; in experiment [1]; in experiment [2]) were less than 0.1 µM, less than 0.1 µM and 0.1 to 1 µM, respectively.
As to `c1cnn(-c2ccc3c(c2)COc2nc(NC4CNC4)ccc2-3)c1` [Compound 166], the half-maximal inhibitory concentration (IC50) is 1 to 10 µM with SMN2, 1 to 10 µM in experiment [1] and more than 10 µM in experiment [2].
Consider `Cc1cnc(-c2ccc3c(c2)COc2nc(N(C)[C@@H]4C[C@H]5CC[C@@H](C4)N5)ccc2-3)o1` [Compound 206], for which the IC50 was 0.1 to 1 µM in the experiment with SMN2, less than 0.1 µM in experiment [1] and 0.1 to 1 µM in experiment [2].
For `c1cc2c(cc1-c1cn[nH]c1)COc1nc(N3CCC34CCNC4)ccc1-2` (stereo not drawn) [Compound 207], the 50% inhibitory concentration (IC50) with SMN2 was more than 10 µM; in experiment [1], 1 to 10 µM; in experiment [2] it was 1 to 10 µM.
For `Cc1ncc(-c2ccc3c(c2)COc2nc(O[C@@H]4C[C@H]5C[C@@H](C4)N5)ccc2-3)s1` [Compound 208], the IC50 (in the experiment on SMN2; in experiment [1]; in experiment [2]) was less than 0.1 µM in each case.
Regarding `c1cc2c(cc1-c1cn[nH]c1)COc1nc(O[C@@H]3C[C@H]4CC[C@@H](C3)N4)ccc1-2` [Compound 218], the 50% inhibitory concentration (IC50) in the experiment on SMN2 is less than 0.1 µM; in experiment [1] it was 0.1 to 1 µM; in experiment [2] it was 0.1 to 1 µM.
For the compound `COc1cc(-c2ccc3c(c2)COc2nc(N4CCC(NC5(C)CCC5)C4)ccc2-3)cnn1` (stereo not drawn) [Compound 285, 1-[8-(6-methoxypyridazin-4-yl)-6H-isochromeno[3,4-b]pyridin-3-yl]-N-(1-methylcyclobutyl)pyrrolidin-3-amine], the results for the 50% inhibitory concentration (IC50) (in the experiment with SMN2; in experiment [1]; in experiment [2]) were less than 0.1 µM, 0.1 to 1 µM and 0.1 to 1 µM, respectively.
Regarding `CC(C)Oc1cnnc(-c2ccc3c(c2)COc2nc(N4CCC(NC(C)(C)C)C4)ccc2-3)c1` (stereo not drawn) [Compound 286], the results for the IC50 (with SMN2; in experiment [1]; in experiment [2]) were more than 10 µM, 1 to 10 µM and 1 to 10 µM, respectively.
As to `COc1cc(-c2ccc3c(c2)COc2nc(N4CCN[C@@H](C)C4)ccc2-3)cnn1` [Compound 287], the IC50 (in the experiment on SMN2; in experiment [1]; in experiment [2]) was 0.1 to 1 µM each time.
For `COc1cc(-c2ccc3c(c2)COc2nc(O[C@@H]4C[C@H]5COC[C@@H](C4)N5)ccc2-3)cnn1` [Compound 290, (exo)-7-{[8-(6-methoxypyridazin-4-yl)-6H-isochromeno[3,4-b]pyridin-3-yl]oxy}-3-oxa-9-azabicyclo[3.3.1]nonane], the concentration for half-maximal inhibition (IC50) (in the experiment with SMN2; in experiment [1]; in experiment [2]) was less than 0.1 µM in each case.
With `COc1cc(-c2ccc3c(c2)COc2nc(N4CCC(N5CCCC5)C4)ccc2-3)cnn1` (stereo not drawn) [Compound 305], the 50% inhibitory concentration (IC50) (with SMN2; in experiment [1]; in experiment [2]) was 0.1 to 1 µM each time.
Take `COc1cc(-c2ccc3c(c2)COc2nc(N4CCC(N(C)C)C4)ccc2-3)cnn1` (stereo not drawn) [Compound 306, 1-[8-(6-methoxypyridazin-4-yl)-6H-isochromeno[3,4-b]pyridin-3-yl]-N,N-dimethylpyrrolidin-3-amine]: the 50% inhibitory concentration (IC50) (in the experiment with SMN2; in experiment [1]; in experiment [2]) was 0.1 to 1 µM throughout.
Regarding `COc1cc(-c2ccc3c(c2)COc2nc(N4CCC(N(C)C5CCC5)C4)ccc2-3)cnn1` (stereo not drawn) [Compound 307, N-cyclobutyl-1-[8-(6-methoxypyridazin-4-yl)-6H-isochromeno[3,4-b]pyridin-3-yl]-N-methylpyrrolidin-3-amine], the IC50 in the experiment on SMN2 is less than 0.1 µM; in experiment [1], 0.1 to 1 µM; in experiment [2], 0.1 to 1 µM.

Broadly, the IC50 is the concentration that inhibits the measured activity by half.
